Results reported in patent publication US9687499B2, “Method using heat shock protein inhibitor for treating hepatitis and hepatoma” (National Tsing Hua University, priority 2014, dated 2017).
pIC50: −log10 of the molar value.

What was measured:
liver cell line WT = experiment: Toxicity to liver cells, WT cell line
[1] = tested on: LHBs-positive cells (SNAP cells 505) expressing HBV-LHBs; experiment: Selective cytotoxicity in co-culture, LHBs-positive cells; format: cell-based; details: 40 μM
Procedure: (§1) With elapse of time, use a microscope to observe the selective cytotoxicity of VER-155008 to the cells expressing HBV-LHBs (hepatitis B virus large S protein). The LHBs-positive cells (SNAP cells 505) are labeled by green fluorescence and co-cultured with unlabeled parental NeHepLxHT. The group of the mixed cells is processed with 40 μM VER-155008 and then periodically recorded at time points separated by a longer interval of time for 48 hours. The observed cellular quantities of the unlabeled cells (parental cells) and the green-labeled cells (LHBs-infected cells) are used to reveal typical cellular apoptosis.

hepatitis B virus [2] = experiment: HBsAg-positive liver cells in liver sections of mice; details: month-long treatment, FIG. 5b
liver cell line Pre-S2 = experiment: Toxicity to liver cells, Pre-S2 cell line; format: cell-based
[3] = Liver function test (GPT) in mice; format: in vivo; details: FIG. 4b
From the text: GPT (Glutamate Pyruvate Transaminase) is used to monitor the liver function of the mice.

parental NeHepLxHT = experiment: Selective cytotoxicity in co-culture, parental cells; format: cell-based; details: 40 μM, 24 hours, FIG. 3b
Procedure: as §1, with “[…].” for “With elapse of time, use a microscope to observe the selective cytotoxicity of VER-155008 to the cells expressing HBV-LHBs (hepatitis B virus large S protein).”, “apoptosis. […].” for “apoptosis.”

HSP90 = HSP90 (Homo sapiens, UniProt P08238); details: selectivity over HSP90; cited from earlier work
Sequence of HSP90 (P08238 whole entry, species assumed): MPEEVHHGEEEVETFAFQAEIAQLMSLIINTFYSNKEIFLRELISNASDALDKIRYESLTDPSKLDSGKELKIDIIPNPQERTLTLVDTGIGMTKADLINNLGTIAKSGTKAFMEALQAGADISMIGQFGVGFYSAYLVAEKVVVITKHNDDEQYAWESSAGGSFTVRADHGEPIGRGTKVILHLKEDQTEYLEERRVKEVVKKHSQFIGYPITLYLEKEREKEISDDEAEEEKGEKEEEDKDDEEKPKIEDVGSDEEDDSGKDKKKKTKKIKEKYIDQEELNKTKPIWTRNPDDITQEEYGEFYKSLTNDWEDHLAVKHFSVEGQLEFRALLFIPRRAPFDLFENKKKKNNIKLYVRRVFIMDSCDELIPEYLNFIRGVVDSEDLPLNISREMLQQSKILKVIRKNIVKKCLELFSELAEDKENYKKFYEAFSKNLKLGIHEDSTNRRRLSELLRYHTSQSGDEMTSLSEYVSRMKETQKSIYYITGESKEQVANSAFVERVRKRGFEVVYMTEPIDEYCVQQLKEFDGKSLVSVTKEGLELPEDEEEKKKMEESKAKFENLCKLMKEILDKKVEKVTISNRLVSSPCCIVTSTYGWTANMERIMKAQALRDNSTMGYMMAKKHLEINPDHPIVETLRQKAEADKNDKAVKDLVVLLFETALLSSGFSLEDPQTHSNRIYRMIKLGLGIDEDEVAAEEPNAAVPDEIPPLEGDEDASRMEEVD

hepatitis B virus [4] = experiment: HBsAg in blood serum of AdHBV-infected mice; format: in vivo; details: intravenous, 20 mg/ml, FIG. 4a
Procedure: Intravenous injection of […] and Pifithrin-μ can successfully reduce the hepatitis B surface antigen (HBsAg) in the blood serum of mice, wherein the mice are continuously infected by hepatitis B virus in an adenovirus genome transfer technology (AdHBV). Each group has three mice. The experiment design is as follows: inject AdHBV into mice continuously for 28 days; respectively inject a mock medication, 20 mg/ml […], and 20 mg/ml Pifithrin-μ into the mice intravenously; collect the samples of the blood serum and livers for serological and pathological analyses.

liver cell line SNAP = experiment: Toxicity to liver cells, SNAP cell line

Question: With `N#Cc1ccc(COC[C@H]2O[C@@H](n3c(NCc4ccc(Cl)c(Cl)c4)nc4c(N)ncnc43)[C@H](O)[C@@H]2O)cc1` [VER-155008, 5′-O-[(4-Cyanophenyl)methyl]-8-[[(3,4-dichlorophenyl)methyl]amino]-adenosine] as the compound, how does the pIC50 (liver cell line WT) read?
Answer: 4.74

Question: What about the “death of LHBs-positive cells” value ([1]; 24 hours, FIG. 3b) of the same compound?
Answer: many of the LHBs-positive cells are dead

Question: And the “death of LHBs-infected cells” value ([1]; 48 hours, FIG. 3c)?
Answer: almost all die

Question: What about the HBsAg-positive liver cells (hepatitis B virus [2]; low dosage (20 mg/Kg) and high dosage (40 mg/Kg)) of the same compound?
Answer: different effects in decreasing the HBsAg-positive liver cells

Question: And the pIC50 (liver cell line Pre-S2)?
Answer: 4.73

Question: And the “levels of GPT in the blood serums” value [3]?
Answer: do not vary obviously

Question: And the “survival of parental cells” value (parental NeHepLxHT)?
Answer: still alive

Question: What about the “effect to HSP70 and GRP78 relative to effect to HSP90” value (HSP90) of the same compound?
Answer: over 100 times

Question: What about the “levels of HBsAg in the blood serums” value (hepatitis B virus [4]) of the same compound?
Answer: obviously reduced

Question: And the pIC50 (liver cell line SNAP)?
Answer: 4.44

Question: With `NS(=O)(=O)C#Cc1ccccc1` [Pifithrin-μ, 2-Phenylethynesulfonamide] as the compound, how does the pIC50 (liver cell line WT) read?
Answer: 4.91

Question: What about the HBcAg-positive liver cells (hepatitis B virus [2]; high dosage (40 mg/Kg)) of the same compound?
Answer: kill a portion of the HBcAg-positive liver cells

Question: What about the pIC50 (liver cell line Pre-S2) of the same compound?
Answer: 4.93

Question: What about the “levels of GPT in the blood serums” value [3] of the same compound?
Answer: do not vary obviously

Question: What about the “levels of HBsAg in the blood serums” value (hepatitis B virus [4]) of the same compound?
Answer: obviously reduced

Question: And the pIC50 (liver cell line SNAP)?
Answer: 4.76
